On the set-up of data set [1]: species or system human. The following applies: in vivo. The method, then:
A parallel group, double blind, vehicle-controlled study was performed in which ARQ-151 cream 0.3% (Formulation 3 in Example 5) or ARQ-151 cream 0.15% (Formulation 7) or vehicle cream is applied QD for 84 days to subjects with chronic plaque psoriasis involving between 2 and 20% body surface area (BSA).
A total of approximately 300 subjects were enrolled at approximately 30 study sites in the United States and Canada. Subjects were adult (≥18 y/o) males or females with chronic plaque psoriasis. […] Subjects with an IGA of ‘Mild’ (2) were limited to 20% of total enrollment. Subjects with an IGA of ‘Severe’ (4) were limited to 15% of total enrollment. Subjects had at least 2% and no more than 20% Body Surface Area (BSA) of chronic plaque psoriasis. All psoriasis lesions on a subject were treated including the face, trunk, genitals/skin folds, or limbs (excluding the scalp). The palms and soles were treated but were not counted towards any measurements of efficacy (IGA, BSA, mPASI). For subjects with intertriginous area involvement, and with severity of the intertriginous area lesions at least ‘mild’ (IGA≥2) at Baseline, ‘I-IGA’ score was recorded at weeks 4, 6, 8 and 12. The same IGA used for the primary endpoint (whole body) was also used for ‘intertriginous area lesion IGA score’ (I-IGA), but only intertriginous areas were evaluated for I-IGA, not the rest of the body.
(§1) Blood samples were taken from all subjects at all sites as pre-dose on Day 1 (baseline) and Weeks 4 (Day 29) and 12 (Day 85). The analysis of the PK data collected was performed with a CFR 21 Part 11 compliant software package (Phoenix WinNonlin version 8.1) which is in full compliance with ICH-GCP. Samples from all subjects within the PK population were evaluated. Any subject or data excluded from the PK analysis were identified, along with the reason for exclusion in this PK report. BSA was averaged based on Baseline, Week 2, Week 4, Week 6 and Week 8 measured BSA values, the screening values, Week 12 and Week 16 values, and any other unscheduled visit values were excluded. Four subjects participated in an optional phase at the completion of the study to assess the elimination of roflumilast and the N-oxide at the end of treatment, however only three had quantifiable concentrations of roflumilast and the N-oxide. From the three subjects, the terminal rate constant (lambda z, λz) was determined by the slope of the regression line of the natural log transformed concentrations vs. time data. The terminal half-life (t½) was calculated as: In(2)/λz.
(§2) Concentration values that are reported BLQ (<0.100 for roflumilast and N-oxide) were reported as below limit of quantification (BLQ) in the concentration data listings and considered non-numerical. Nonnumerical values were ignored in the concentration by nominal time summary statistics. Summary statistics (i.e. N, arithmetic mean, SD, CV %, minimum, median, maximum, geometric mean, geometric SD, 95% confidence intervals for both the arithmetic mean and geometric mean) were calculated for plasma concentrations for each analyte, nominal day and dose strength. All concentration and descriptive statistic values were reported to three significant figures.

Data set [2] in a line: optional elimination phase assessment at end of treatment with ARQ-151 cream in psoriasis. Type of data set: in vivo, human. The following applies: for half-life: human, plasma. The method, then: as §1, §2
For data set [3] the following is noted: cited from earlier work.
The conditions of data set [4]: cited from earlier work; for mean plasma half-life: multiple 0.375 mg doses, immediate release oral roflumilast.
The next data set in a line: clinical. The following applies: human, in vivo, po. The procedure:
In addition to the consistent delivery of a suspended active ingredient from a topical product, successful treatment also depends on the elimination kinetics of the active ingredient. After a drug is absorbed into a patient's body, elimination begins thereby reducing the concentration over time. The half-life determines the length of time that the drug will be effective. […] Since the maximum plasma concentration (11.4 ng roflumilast per mL plasma) occurs for roflumilast about 1 hour after oral dosing, mean plasma concentration at the time of the first missed dose (1 day after the most recent dose) will be approximately 5.7 ng/mL (half the 11.4 ng/mL maximum plasma concentration). […] For oral roflumilast, use of a sustained release oral drug delivery system instead of the immediate release tablet studied by Huang, would be an example of extrinsic PK property modification to increase the adherence imperfection forgiveness of the product that would benefit the patient that missed one or more doses of roflumilast.

Data set [5] can be described thus: dissolution of roflumilast in solvents and solvent:water blends at 25° C. Type of data set: physicochemical. The procedure:
(§3) 0.0092 grams of roflumilast (Batch A14367P from Interquim S.A.) was weighed into a liquid scintillation vial. An equimolar blend of hexylene glycol (lot 1AC0818, Spectrum) and distilled water was added dropwise with mixing to the vial containing roflumilast to produce a suspension of roflumilast in excess of the solubility limit. An equimolar blend is 86.7% hexylene glycol and 13.3% water on a weight/weight percent basis. After mixing each addition of hexylene glycol:water blend, the tightly capped vial was returned to a water bath set at 25° C. It required 0.7962 grams of equimolar Hexylene Glycol:Water blend to completely dissolve the 0.0092 grams of roflumilast and give a 1.14% roflumilast in equimolar Hexylene Glycol:Water (wt/wt %) solution. 0.0064 grams of roflumilast was added to this sample (labeled 12-3) to form a finely dispersed suspension at 25° C. and the vial was then stored undisturbed at about 15-18° C., protected from the light for six weeks. A sample of the roflumilast crystals was removed from the vial, placed on a microscope slide (with coverslip) and then examined using polarized light microscopy using a 10× objective (FIG. 2, microscope sample 20-3).
0.0111 grams of roflumilast (Batch A14367P from Interquim S.A.) was weighed into a liquid scintillation vial. An equimolar blend of […] (Transcutol P, lot 146063, Gattefosse) and distilled water was added dropwise with mixing to the vial containing roflumilast to produce a suspension of roflumilast in excess of the solubility limit. An equimolar blend is 88.3% DEGEE and 11.7% water on a weight/weight percent basis. After mixing each addition of DEGEE:water blend, the tightly capped vial was returned to a water bath set at 25° C. It required 0.2477 grams of equimolar DEGEE:Water blend to completely dissolve the 0.0111 grams of roflumilast and give a 4.29% roflumilast in equimolar DEGEE:Water (wt/wt %) solution. This sample (labeled 13-1) was a solution of roflumilast at 25° C. and the vial was then stored undisturbed at about 15-18° C., protected from the light for six weeks. Roflumilast crystals precipitated due to the cooler storage temperature. A sample of the roflumilast crystals was removed from the vial, placed on a microscope slide (with coverslip) and then examined using polarized light microscopy using a 10× objective (FIG. 3, microscope sample 20-2).
as §3, with “4×” for “10×”, “4,” for “2,”
0.0180 grams of roflumilast (Batch A14367P from Interquim S.A.) was weighed into a liquid scintillation vial. Polyethylene glycol 400 (lot 1 DE0880, Spectrum) was added dropwise with mixing to the vial containing roflumilast to produce a suspension of roflumilast in excess of the solubility limit. After mixing each addition of polyethylene glycol 400, the tightly capped vial was returned to a water bath set at 25° C. […]

Data set [6] is described as follows: roflumilast crystal size by polarized light microscopy, dry and after six weeks storage in solvent blends. Type of data set: physicochemical. The following applies: for crystal width: six weeks at room temperature.

SMILES strings stand for the structures. Where two headings read alike, the source gives them in different places.

Consider `O=C(Nc1c(Cl)c[n+]([O-])cc1Cl)c1ccc(OC(F)F)c(OCC2CC2)c1` [roflumilast N-oxide], for which, in data set [1], the “mean N-oxide pre-dose plasma concentration relative to parent pre-dose plasma concentration” value is given as 5.3-6.2 fold and the “mean pre-dose plasma concentration, Day 29 versus Day 85” value is reported as at most 2 fold. For the same compound, the Half-life values result in data set [2] (three subjects, end of treatment, topical ARQ-151) is listed as “around 3.6 days”.
Regarding `O=C(Nc1c(Cl)cncc1Cl)c1ccc(OC(F)F)c(OCC2CC2)c1` [roflumilast, N-(3,5-dichloropyrid-4-yl)-3-cyclopropylmethoxy-4-difluoromethoxybenzamid-e], the “mean pre-dose plasma concentration, Day 29 versus Day 85” value in data set [1] (both, human) is listed as at most 2 fold. Also, the “increase of roflumilast plasma pre-dose concentration between the 2-fold increase in dose strength” value is recorded as “about 1.6 fold” in data set [1] (both, human, 29 day) and “about 1.7 fold” in data set [1] (both, human, 85 day). In addition, the plasma half-life entry is “about 15 hours” in data set [3] (after intravenous administration in humans) and 17 to 30 h in data set [3] (after oral administration). For the same compound, the mean plasma half-life result in data set [4] is “about 1 day”; in data set [4] (mean of 12 subjects) it was 25.6 h. Besides, the maximum plasma concentration in data set [4] (multiple 0.375 mg oral doses) was 11.4 ng/mL. Besides, the “time of maximum plasma concentration after oral dosing” value in data set [4] (multiple 0.375 mg oral doses) is recorded as “about 1 hour”. Further, the concentration at 1 day in “clinical” was about 5.7 ng/mL. In “clinical”, this compound came in with a concentration at 2 days of about 2.8 ng/mL. The concentration at 72 hours in the data set “clinical” was about 1.4 ng/mL. Moreover, the “storage time until fine roflumilast crystals were observed” value in data set [5] (0.28% roflumilast, 88.97% propylene glycol, 10.75% water, initially clear solution, 25° C.) worked out at 105 min. The “roflumilast concentration in solution” value in data set [5] (dimethyl sulfoxide, 25° C.) is recorded as 28.5%. Besides, the “roflumilast concentration at complete dissolution” value is 4.29 wt/wt % in data set [5] (equimolar DEGEE:Water, 25° C.); 1.14 wt/wt % in data set [5] (equimolar Hexylene Glycol:Water, 25° C.); 3.18% in data set [5] (polyethylene glycol 400, 25° C.). Further, the “roflumilast concentration completely dissolved” value in data set [5] (equimolar N-Methyl-2 pyrrolidone:water, 25° C.) came out at 22.85%. Moreover, the crystal width in data set [6] (Sample 21-1, HG:NMP:Water (water mole fraction=1.2)) is recorded as 0.02 mm; in data set [6] (Sample 21-2, equimolar ethanol:water), 0.02 mm; in data set [6] (Sample 21-3, equimolar PEG 400:water), 0.02 mm; in data set [6] (Sample 21-5, equimolar propylene glycol:water), 0.02 mm. The “roflumilast crystalline growth, comparison” value in data set [6] (equimolar N-methyl pyrrolidone:water compared to 12:4:3 (wt/wt/wt) hexylene glycol:N-methyl pyrrolidone:water) is “Dramatically greater roflumilast crystalline growth”. The half-life in data set [2] (topical or ocular, three subjects, end of treatment, topical ARQ-151, read-out: Half-life values (converted)) is about 86.4 h; in data set [2] (after topical administration of a formulation with self-emulsifying wax blend of dicetyl phosphate and ceteth-10 phosphate and a solvent, read-out: plasma half-life of roflumilast), 81.6 to 88.8 h.

For orientation: half-life means the time needed for the level to fall by half in the phase considered.
